Active and inactive are the calls of the source.
Columns and labels:
[1] = Late stage assay provider results from the probe development effort to identify selective inhibitors of heat shock protein 90 (HSP90): Absorbance-based cell proliferation assay in MCF7 cells.; assay type: functional
[2] = Late stage assay provider results from the probe development effort to identify selective inhibitors of heat shock protein 90 (HSP90): Absorbance-based cell proliferation assay in SKBR3 cells.; assay type: functional; details: SK-BR-3
[3] = MITF Orthogonal Assay: SK-MEL-5 CTG Assay Measured in Cell-Based System Using Plate Reader - 2084-02_Inhibitor_Dose_DryPowder_Activity_Set7.; assay type: functional
[4] = MITF: Counter assay: A375 proliferation Measured in Cell-Based System Using Plate Reader - 2084-03_Inhibitor_Dose_DryPowder_Activity_Set8.; assay type: functional; details: A-375
[5] = TRPM1 promoter luciferase reporter signal decrease, dose response, MITF inhibitor project, cell-based, SK-MEL-5, dry powder, set 8 (AID 624430); assay type: functional
[6] = target: Tyrosyl-DNA phosphodiesterase 2 (Homo sapiens, UniProt O95551); assay: human TDP2 enzyme inhibitors, dose response, biochemical, epi absorbance, IC50 (AID 743297)
[7] = target: T1, Apoptotic protease-activating factor 1 (Homo sapiens, UniProt O14727); assay type: functional
T1 sequence (O14727 whole entry): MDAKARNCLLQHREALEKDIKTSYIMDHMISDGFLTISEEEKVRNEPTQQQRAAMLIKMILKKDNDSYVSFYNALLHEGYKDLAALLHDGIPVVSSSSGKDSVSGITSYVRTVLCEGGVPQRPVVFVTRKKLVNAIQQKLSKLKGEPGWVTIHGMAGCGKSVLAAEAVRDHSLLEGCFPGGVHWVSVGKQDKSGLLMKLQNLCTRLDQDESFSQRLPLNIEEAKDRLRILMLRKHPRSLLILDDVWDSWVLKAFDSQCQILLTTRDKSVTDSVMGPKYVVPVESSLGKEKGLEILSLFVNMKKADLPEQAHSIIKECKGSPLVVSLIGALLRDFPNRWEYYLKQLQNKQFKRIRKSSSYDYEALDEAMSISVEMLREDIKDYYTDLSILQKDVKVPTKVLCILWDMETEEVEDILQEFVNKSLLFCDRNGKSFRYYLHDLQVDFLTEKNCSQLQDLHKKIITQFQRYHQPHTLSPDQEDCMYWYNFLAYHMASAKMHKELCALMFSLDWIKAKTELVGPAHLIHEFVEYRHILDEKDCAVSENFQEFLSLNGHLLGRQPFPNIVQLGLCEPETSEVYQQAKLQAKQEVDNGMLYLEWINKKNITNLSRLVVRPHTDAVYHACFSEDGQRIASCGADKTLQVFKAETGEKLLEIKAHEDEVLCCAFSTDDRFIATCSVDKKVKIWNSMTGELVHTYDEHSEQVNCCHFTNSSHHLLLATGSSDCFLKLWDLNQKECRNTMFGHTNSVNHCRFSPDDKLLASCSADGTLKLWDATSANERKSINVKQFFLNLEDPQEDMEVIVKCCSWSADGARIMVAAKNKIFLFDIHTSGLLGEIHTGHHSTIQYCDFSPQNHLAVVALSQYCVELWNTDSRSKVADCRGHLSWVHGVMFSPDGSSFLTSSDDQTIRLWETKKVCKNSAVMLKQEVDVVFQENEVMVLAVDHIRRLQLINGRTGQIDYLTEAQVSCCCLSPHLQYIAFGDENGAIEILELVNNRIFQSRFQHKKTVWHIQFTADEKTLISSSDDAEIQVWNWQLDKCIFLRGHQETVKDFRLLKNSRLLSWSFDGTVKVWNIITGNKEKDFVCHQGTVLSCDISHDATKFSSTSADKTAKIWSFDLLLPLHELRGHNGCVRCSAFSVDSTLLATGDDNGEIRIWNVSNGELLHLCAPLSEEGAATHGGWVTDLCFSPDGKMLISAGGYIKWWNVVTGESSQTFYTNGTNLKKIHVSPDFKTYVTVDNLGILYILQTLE

[8] = target: T2, Heat shock factor protein 1 (Mus musculus, UniProt P38532); assay: HSF1 potentiators in luciferase reporter cells, confirmation, cell-based, NIH3T3, luminescence, dose retest (AID 435004); assay type: functional;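 note: stress induced by proteasome inhibitor MG132 added 30 min after compound; luciferase reporter driven by HSF1 response element in NIH3T3 cells; actives raise luminescence as potentiators of the MG132 stress response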
T2 sequence (P38532 whole entry): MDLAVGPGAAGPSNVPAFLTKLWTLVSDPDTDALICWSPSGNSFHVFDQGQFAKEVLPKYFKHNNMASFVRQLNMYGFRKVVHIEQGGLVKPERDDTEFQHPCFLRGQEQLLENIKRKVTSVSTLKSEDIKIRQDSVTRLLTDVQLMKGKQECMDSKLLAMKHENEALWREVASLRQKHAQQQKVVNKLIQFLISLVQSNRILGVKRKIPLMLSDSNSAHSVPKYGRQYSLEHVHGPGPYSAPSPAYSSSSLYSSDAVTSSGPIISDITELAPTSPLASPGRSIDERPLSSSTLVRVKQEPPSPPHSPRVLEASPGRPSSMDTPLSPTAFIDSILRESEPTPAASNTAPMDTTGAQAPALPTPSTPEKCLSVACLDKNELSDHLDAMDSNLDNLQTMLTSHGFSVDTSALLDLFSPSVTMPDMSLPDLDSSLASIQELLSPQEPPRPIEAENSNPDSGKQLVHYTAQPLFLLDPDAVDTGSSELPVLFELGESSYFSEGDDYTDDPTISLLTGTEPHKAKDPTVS

Protein RecA = target: T3, Protein RecA (Mycobacterium tuberculosis, UniProt P9WHJ3); assay: Fluorescence Cell-Free Homogeneous Dose Retest to Identify Inhibitors of RecA-Intein Splicing Activity. [Related pubchem assays (depositor defined):AID2097, AID2223, AID489010, AID492950]; assay type: functional
T3 sequence (P9WHJ3 whole entry): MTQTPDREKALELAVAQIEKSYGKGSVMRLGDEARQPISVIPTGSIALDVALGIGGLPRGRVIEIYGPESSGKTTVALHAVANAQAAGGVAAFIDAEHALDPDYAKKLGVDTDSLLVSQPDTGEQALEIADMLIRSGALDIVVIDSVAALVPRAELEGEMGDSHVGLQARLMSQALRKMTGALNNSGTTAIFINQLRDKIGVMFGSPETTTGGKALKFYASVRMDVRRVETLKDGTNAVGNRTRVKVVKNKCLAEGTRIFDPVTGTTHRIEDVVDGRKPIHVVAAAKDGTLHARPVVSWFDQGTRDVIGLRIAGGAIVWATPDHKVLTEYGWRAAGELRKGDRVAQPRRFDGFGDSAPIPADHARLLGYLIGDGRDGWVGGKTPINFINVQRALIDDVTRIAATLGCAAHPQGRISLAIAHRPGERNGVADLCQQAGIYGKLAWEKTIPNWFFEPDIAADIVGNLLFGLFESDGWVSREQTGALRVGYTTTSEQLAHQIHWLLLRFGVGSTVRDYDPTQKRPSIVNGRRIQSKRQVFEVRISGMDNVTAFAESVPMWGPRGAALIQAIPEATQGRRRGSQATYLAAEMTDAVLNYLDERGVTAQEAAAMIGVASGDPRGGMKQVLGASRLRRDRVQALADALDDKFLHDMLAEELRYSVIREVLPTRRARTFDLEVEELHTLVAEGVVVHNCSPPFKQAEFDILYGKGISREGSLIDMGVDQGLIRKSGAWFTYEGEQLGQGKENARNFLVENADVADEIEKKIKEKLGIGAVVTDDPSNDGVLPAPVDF

[9] = target: T4, Replicative DNA helicase DnaB (Mycobacterium tuberculosis, UniProt P9WMR3); assay: DnaB intein splicing inhibitors, dose response, biochemical, cell-free fluorescence (AID 449749); assay type: functional
T4 sequence (P9WMR3 whole entry): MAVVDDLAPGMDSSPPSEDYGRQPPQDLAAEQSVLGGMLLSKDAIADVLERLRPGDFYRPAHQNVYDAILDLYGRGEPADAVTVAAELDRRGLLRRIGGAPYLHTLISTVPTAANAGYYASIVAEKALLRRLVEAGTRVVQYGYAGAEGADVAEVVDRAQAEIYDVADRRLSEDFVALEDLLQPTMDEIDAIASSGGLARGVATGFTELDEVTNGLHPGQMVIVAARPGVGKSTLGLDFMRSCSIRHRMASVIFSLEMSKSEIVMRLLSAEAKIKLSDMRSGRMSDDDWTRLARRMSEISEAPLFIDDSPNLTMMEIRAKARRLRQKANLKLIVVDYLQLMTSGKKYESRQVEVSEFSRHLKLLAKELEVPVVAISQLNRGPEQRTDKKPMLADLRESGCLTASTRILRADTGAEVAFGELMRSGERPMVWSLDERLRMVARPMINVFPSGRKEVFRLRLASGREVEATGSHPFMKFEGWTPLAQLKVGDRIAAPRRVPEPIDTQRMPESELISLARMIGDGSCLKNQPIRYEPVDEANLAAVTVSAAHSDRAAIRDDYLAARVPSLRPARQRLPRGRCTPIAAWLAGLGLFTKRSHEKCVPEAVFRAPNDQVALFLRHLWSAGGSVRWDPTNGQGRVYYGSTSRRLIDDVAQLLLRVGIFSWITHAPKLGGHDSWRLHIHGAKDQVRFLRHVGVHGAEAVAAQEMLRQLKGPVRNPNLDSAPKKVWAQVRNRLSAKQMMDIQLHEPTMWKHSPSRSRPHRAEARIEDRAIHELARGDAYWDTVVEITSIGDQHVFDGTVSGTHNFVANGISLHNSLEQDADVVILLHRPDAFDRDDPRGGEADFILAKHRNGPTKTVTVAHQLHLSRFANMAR

INS1 = assay: beta cell apoptosis inhibitors, cytokine rescue, dose response, luminescence, retest (AID 449756); assay type: functional, cell-based; details: Rattus norvegicus;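 note: cell death triggered by IL-1 beta plus TNF-alpha plus IFN-gamma mixture; protective hits raise ATP signal compared with cytokine alone wells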
[10] = HEK293T cytotoxicity, dose response, cytotoxicity control for miR-122 modulator project, cell-based, inhibitor set, cherry-pick, set 2 (AID 720697); assay type: functional
BJ [11] = assay: cells; assay type: functional, cell-based; details: Homo sapiens
cells [12] = assay type: functional, cell-based
cells [13] = assay type: functional, cell-based; remark: listed apart in the source
[14] = miR-122 activators in hepatoma reporter cells, dose response, cell-based, Huh7 psiCHECK-miR122, Renilla luciferase, cherry-picked (AID 651956); assay type: functional;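 note: huh7 hepatoma cells stably carrying a psiCHECK-2 miR-122 sensor plasmid; renilla luciferase signal reporting endogenous miR-122 activity after 48 h compound exposure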
[15] = target: T5, Type-1 angiotensin II receptor (Homo sapiens, UniProt P30556); assay: AT1 receptor antagonists, dose response, selectivity assay for APJ receptor antagonist project, cell-based, uHTS hits (AID 463214); assay type: functional;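 note: antagonist potency against angiotensin II stimulated AT1 response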
T5 sequence (P30556 whole entry): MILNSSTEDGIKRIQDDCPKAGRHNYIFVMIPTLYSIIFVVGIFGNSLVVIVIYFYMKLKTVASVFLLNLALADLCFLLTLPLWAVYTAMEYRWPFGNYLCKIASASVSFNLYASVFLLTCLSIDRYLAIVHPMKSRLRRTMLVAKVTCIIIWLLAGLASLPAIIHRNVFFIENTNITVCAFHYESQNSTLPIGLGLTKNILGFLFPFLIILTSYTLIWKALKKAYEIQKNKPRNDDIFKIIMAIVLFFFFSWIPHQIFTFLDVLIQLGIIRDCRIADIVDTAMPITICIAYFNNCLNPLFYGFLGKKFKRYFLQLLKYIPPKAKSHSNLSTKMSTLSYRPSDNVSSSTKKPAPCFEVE

Beta-galactosidase [16] = target: T6, Beta-galactosidase (Escherichia coli, UniProt Q8VNN2); assay: PubChem AID 485352; assay type: functional
[17] = target: Heat shock protein HSP 90-alpha (Homo sapiens, UniProt P07900); assay type: functional, organism-based
BJ [18] = assay: cytotoxicity toward BJ-TERT fibroblasts, dose response, cell-based, RAS-independent, luminescence (AID 1933); assay type: functional; details: Homo sapiens
BJ [19] = assay: cytotoxicity toward BJ-TERT-LT-ST fibroblasts, dose response, cell-based, RAS-independent, luminescence (AID 1935); assay type: functional; details: Homo sapiens;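 note: BJ fibroblasts immortalized with TERT plus LT and ST oncogenes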
Nonstructural protein 1 = Nonstructural protein 1 (Influenza A virus, UniProt Q194T2); assay type: functional, Influenza A virus (A/California/07/2009(H1N1))
[20] = cytotoxicity toward DRD oncogenic fibroblasts, dose response, cell-based, non-viral oncogenic, luminescence (AID 1934); assay type: functional; details: Homo sapiens
[21] = target: Photoreceptor-specific nuclear receptor (Homo sapiens, UniProt Q9Y5X4); assay type: functional, cell-based;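 note: CHO-S cells with Gal4-NCOR and VP16-NR2E3 two-hybrid luciferase reporter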
[22] = HEK293T cytotoxicity, dose response, cytotoxicity control for miR-122 modulator project, cell-based, activator set, cherry-pick (AID 720690); assay type: functional;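 note: HEK293T human cells scored for general mammalian cytotoxicity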
[23] = target: T7, Kappa-type opioid receptor (Homo sapiens, UniProt P41145); assay type: functional
Streptococcus = assay: Group A Streptococcus viability loss, dose response, counter-screen for streptokinase expression inhibitor project, luminescence, BacTiterGlo (AID 1915); assay type: functional, organism-based;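 note: potency for reduction of bacterial viability or growth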
[24] = target: T7, Kappa-type opioid receptor; assay type: functional; remark: listed apart in the source
BJ [25] = assay: cytotoxicity toward Ras-transformed BJeLR fibroblasts, dose response, cell-based, alamar blue fluorescence, cherrypicked samples (AID 2631); assay type: functional; details: Homo sapiens;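 note: confirmatory dose-response assay in RAS-dependent BJ fibroblasts engineered with TERT, LT and ST, with cytotoxicity read by fluorescence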
[26] = tested on: Streptococcus sp. 'group A'; assay: growth inhibition of control SK(-) GAS strain, dose response, counter-screen for streptokinase expression inhibitor project, luminescence, kanamycin, BacTiterGlo, confirmation (AID 1900); assay type: functional, organism-based
Beta-galactosidase [27] = target: T6, Beta-galactosidase; assay type: functional

T6 sequence (Q8VNN2 whole entry): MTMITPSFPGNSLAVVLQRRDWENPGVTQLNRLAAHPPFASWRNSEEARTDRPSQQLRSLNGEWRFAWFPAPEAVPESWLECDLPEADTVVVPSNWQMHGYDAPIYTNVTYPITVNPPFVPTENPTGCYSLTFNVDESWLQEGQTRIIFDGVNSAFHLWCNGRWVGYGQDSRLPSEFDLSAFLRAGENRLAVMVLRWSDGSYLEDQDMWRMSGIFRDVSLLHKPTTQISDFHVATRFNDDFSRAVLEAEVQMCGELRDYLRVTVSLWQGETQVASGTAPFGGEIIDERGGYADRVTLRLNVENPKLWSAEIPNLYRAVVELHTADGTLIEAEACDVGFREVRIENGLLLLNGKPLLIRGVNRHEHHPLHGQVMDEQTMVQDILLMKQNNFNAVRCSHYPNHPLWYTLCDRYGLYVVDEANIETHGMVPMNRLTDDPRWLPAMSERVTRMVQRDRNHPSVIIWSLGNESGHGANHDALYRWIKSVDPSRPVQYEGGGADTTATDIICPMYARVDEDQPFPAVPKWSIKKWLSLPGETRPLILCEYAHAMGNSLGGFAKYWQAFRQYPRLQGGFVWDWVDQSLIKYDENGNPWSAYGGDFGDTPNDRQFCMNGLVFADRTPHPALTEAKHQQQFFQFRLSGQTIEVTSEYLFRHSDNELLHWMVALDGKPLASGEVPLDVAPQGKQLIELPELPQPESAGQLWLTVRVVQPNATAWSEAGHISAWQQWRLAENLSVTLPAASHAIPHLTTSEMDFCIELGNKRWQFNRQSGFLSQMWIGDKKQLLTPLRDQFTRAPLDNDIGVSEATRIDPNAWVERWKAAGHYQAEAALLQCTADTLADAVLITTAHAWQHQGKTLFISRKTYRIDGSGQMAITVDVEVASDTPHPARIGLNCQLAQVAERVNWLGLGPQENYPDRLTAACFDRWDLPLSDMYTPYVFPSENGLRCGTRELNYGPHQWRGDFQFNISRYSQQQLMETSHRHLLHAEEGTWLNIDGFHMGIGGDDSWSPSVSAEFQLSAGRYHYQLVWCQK
T7 sequence (P41145 whole entry): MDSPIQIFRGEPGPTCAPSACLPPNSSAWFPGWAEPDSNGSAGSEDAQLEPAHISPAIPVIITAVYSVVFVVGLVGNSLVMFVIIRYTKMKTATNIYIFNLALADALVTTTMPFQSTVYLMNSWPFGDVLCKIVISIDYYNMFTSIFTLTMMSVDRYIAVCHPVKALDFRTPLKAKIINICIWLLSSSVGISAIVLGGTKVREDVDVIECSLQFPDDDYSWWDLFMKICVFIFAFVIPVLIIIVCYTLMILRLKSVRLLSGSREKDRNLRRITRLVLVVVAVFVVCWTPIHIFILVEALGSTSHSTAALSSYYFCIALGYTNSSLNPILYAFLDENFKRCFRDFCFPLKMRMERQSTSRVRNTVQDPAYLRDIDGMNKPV
Tyrosyl-DNA phosphodiesterase 2, sequence (O95551 whole entry): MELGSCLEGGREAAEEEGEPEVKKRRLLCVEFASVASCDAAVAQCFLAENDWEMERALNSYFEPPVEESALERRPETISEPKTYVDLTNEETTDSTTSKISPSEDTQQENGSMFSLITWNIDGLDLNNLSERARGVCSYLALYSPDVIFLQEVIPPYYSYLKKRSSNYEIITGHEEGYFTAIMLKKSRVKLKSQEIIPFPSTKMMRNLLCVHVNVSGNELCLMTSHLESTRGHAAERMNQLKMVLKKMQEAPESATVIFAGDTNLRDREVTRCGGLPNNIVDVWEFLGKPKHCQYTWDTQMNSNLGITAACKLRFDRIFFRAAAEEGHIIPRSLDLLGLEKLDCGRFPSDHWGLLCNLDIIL
Nonstructural protein 1, sequence (Q194T2 whole entry): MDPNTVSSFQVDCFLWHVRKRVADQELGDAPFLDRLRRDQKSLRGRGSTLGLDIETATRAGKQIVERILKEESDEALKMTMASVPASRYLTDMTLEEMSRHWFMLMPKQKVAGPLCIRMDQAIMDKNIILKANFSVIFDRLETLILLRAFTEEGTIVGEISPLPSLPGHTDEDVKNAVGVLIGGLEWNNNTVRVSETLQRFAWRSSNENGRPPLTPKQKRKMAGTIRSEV
Photoreceptor-specific nuclear receptor, sequence (Q9Y5X4 whole entry, the tested form may be a part): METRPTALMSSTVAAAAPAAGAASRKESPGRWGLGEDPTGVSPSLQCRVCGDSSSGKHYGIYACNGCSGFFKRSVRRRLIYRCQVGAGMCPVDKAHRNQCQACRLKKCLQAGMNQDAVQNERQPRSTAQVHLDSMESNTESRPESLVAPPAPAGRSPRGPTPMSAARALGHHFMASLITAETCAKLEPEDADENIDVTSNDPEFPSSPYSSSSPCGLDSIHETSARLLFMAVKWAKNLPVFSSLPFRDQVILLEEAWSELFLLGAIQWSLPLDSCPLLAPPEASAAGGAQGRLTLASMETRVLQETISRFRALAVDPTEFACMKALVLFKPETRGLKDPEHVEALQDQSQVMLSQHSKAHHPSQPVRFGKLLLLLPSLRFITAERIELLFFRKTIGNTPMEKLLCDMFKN

O=C1OC(=O)/C(=C\NCCN2CCOCC2)C=C1Br
IC50 [1]: 67 µM (inactive)
IC50 [2]: 61 µM (inactive)

COc1ccc(NC2=C(N3CCN(C)CC3)C(=O)c3ccccc3C2=O)cc1
AC50 [3]: 16.4 µM (active)
AC50 [4]: > 70 µM (inactive)
AC50 [5]: 24.9 µM (active)

CC(=O)Nc1ccc(S(=O)(=O)NC2=C(N3CCN(c4ccc(F)cc4)CC3)C(=O)c3ccccc3C2=O)cc1
IC50 [6]: > 128 µM (inactive)
IC50 [7]: 17.4 µM (active)
EC50 [8]: > 260 µM (inactive)
EC50 (Protein RecA): 10.4 µM (active)
AC50 [9]: 4.98 µM (active)
AC50 (INS1): 4.96 µM (active)

Cc1cccnc1Nc1nc(-c2ccccn2)cs1
AC50 [10]: 0.503 µM (active)
EC50 (BJ [11]): 2.18 µM (active)
EC50 (cells [12]): 3.45 µM (active)
EC50 (cells [13]): 3.13 µM (active)
AC50 [14]: 43.8 µM (active)
IC50 [15]: 2.24 µM (active)
EC50 (Beta-galactosidase [16]): > 40 µM (inactive)
EC50 [8]: 3.33 µM (active)
AC50 [17]: 4.65 µM (active)
EC50 (BJ [18]): 1.46 µM (active)
EC50 (BJ [19]): 6.23 µM (inconclusive)
IC50 (Nonstructural protein 1): 2.83 µM (active)
EC50 [20]: 15.3 µM (inconclusive)
IC50 [21]: 3.9 µM (active)
AC50 [22]: 2.3 µM (active)
IC50 [23]: > 32 µM
EC50 (Streptococcus): 6.4 µM (active)
IC50 [24]: 2.9 µM (active)
EC50 (BJ [25]): 0.661 µM (active)
AC50 (INS1): 0.29 µM (active)
EC50 [26]: 1.1 µM (active)
EC50 (Beta-galactosidase [27]): > 31.5 µM (inactive)

From ChEMBL document CHEMBL1201862, “PubChem BioAssay data set” (2004)
